# Experimental data taken from US20080171059A1, “METHODS AND COMPOSITIONS FOR INCREASED PRIMING OF T-CELLS THROUGH CROSS-PRESENTATION OF EXOGENOUS ANTIGENS” (priority 2006, published 2008).
# Assays:
# [1] = test system: CD8+ T cell line specifically recognizing the N9V/HLA-A*0201 complex; assay: Cross-presentation assay: yeast-fed monocyte-derived DCs stimulate IFNγ secretion in co-cultured N9V-specific CD8+ T cells; format: cell-based, human
# Protocol: An interferon gamma (IFNY) secretion cell capture FACS assay was performed on the T cells to quantify the percentage of cells that had been activated as a result of cross-presentation by the DCs.
# The monocytes were aliquoted into vials and cryopreserved in 90% fetal bovine serum (FBS), 10% DMSO. […] Unless otherwise indicated, media components were from Hyclone (Logan, Utah); low endotoxin products were chosen where available. 4-5×10^6 monocytes were cultured per well of a 6-well plate in 2.5 ml C10 medium supplemented with 1000 U/ml each of interleukin-4 and granulocyte-macrophage colony stimulating factor (C10GF; cytokines from R & D Systems, Minneapolis, Minn.). After 2 and 4 days of culture, each well was topped up with 0.5 ml C10GF; after 6 days of culture, floating and loosely adherent monocyte-derived DCs were harvested by gentle resuspension.
# Cross-presentation Assay After 6 days of differentiation, monocyte-derived DCs were seeded in 96-well round bottom plates at 1 or 2×10^5 cells in 200 μl C10GF per well. Appropriate numbers of yeast cells (measured by optical density at 600 nm with 10D≈10^7/ml) were rendered non-viable by UV-irradiation (2×1000 J/m^2 in a Stratalinker, Stratagene, La Jolla, Calif.), pelleted by centrifugation and added to the DCs. For inhibition experiments, DCs were pre-incubated with lactacystin (5 μM; Calbiochem, San Diego, Calif.) or chloroquine (25 μM) for one hour before yeast samples were introduced. […] Following 4 h of co-culture, the contents of each well were transferred to tubes for labeling with Miltenyi's IFNY secretion assay kit (Bergisch Gladbach, Germany) according to the recommended protocol. […] The percentage of CD8^+ cells that were IFNY+ was determined by flow cytometry (Coulter Epics XL, Fullerton, Calif. or BD FACSCalibur). The cut-off PE fluorescence was set for each experiment such that about 0.5% of T cells were IFNY+ in a negative control sample (no yeast or peptide).
# Surface Display Antigen Dose Normalization In experiments where different linkers were used to surface-display antigen, several cultures of each yeast sample were induced, and cultures with mean antigen levels within 10% of each other were selected to minimize the effect of variable antigen dose on cross-presentation. […] Therefore, each yeast sample was mixed with the appropriate amount of EBY100 yeast to normalize the antigen dose while maintaining the 20:1 ratio of yeast to DCs.
# [2] = target: Cathepsin S (Homo sapiens, UniProt P25774); assay: Cleavage of antigen sequences by Cathepsin S; format: biochemical; conditions: cleavage positions MQ|AE and NLVPMVA|TV
# Chain of Cathepsin S (P25774 115-331): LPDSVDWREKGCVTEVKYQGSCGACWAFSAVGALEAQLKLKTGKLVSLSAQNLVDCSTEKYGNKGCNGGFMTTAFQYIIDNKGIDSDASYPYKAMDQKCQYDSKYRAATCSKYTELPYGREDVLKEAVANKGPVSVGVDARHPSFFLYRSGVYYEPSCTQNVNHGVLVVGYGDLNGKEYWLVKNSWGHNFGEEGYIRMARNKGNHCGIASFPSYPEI
compound,measurement,setting,value
CC(=O)N[C@@H](CSC(=O)[C@]1([C@@H](O)C(C)C)NC(=O)[C@H](C)[C@@H]1O)C(=O)O [lactacystin],Effect of inhibitor on cross-presentation of surface-displayed antigen,"[1]; EBYN9V yeast 20:1, lactacystin 5 μM or chloroquine 25 μM added one hour before yeast",strongly inhibited
same,"Effect of inhibitor on cross-presentation of strains with deleted, C1 and (C1)4 linkers","[1]; all three integrated strains, lactacystin 5 μM or chloroquine 25 μM",inhibited
same,Effect of inhibitor on cross-presentation of intracellular antigen,"[1]; yeast expressing Aga2p-N9V intracellularly 20:1, lactacystin 5 μM or chloroquine 25 μM",inhibited
"ARNLVPMVATVQGQN [15-mer extended CMV pp 65 peptide containing N9V, positive control]",Percentage of IFNγ+ T cells,"[1]; positive control, 1 μM extended peptide",45-70%
"NLVPMVATV [cytomegalovirus epitope, HLA-A*0201-restricted peptide derived from CMV phosphoprotein pp 65]",Cleavage by Cathepsin S,[2],cleaved rapidly
